Active and inactive are the calls of the source. No rule for the calls is given here.

The series has as its system rodent carcinogenicity bioassays, tumor incidence. Nature of the series: CCRIS carcinogenicity studies. In short, it runs like this: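 NCI-built, expert-reviewed records of carcinogenicity and related test outcomes (mutagenicity, tumor promotion/inhibition) compiled from published and report sources, historical span 1985-2011, not updated.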

For `CCCCCN(N=O)C(N)=O`, the carcinogen call is “active; positive” (Species: RAT, Strain/Sex: F344/FEMALE, Route: GAVAGE, Dose: 0, 16 MG/ML (TOTAL DOSE 0; 2 MMOL) IN 2 ML ETHYL ACETATE AND CORN OIL (1:2) 2/WK FOR 50 WK (STUDY DURATION: LIFETIME), Dose: 0, 16 MG/ML (TOTAL DOSE 0; 2 MMOL) IN 2 ML ETHYL ACETATE AND CORN OIL (1:2) 2/WK FOR 50 WK (STUDY DURATION: LIFETIME), Tumor Site: Type of Lesion: FORESTOMACH: SQUAMOUS CELL CARCINOMA, LUNG: TUMOR, UTERUS: TUMOR, Tumor Site: Type of Lesion: FORESTOMACH: SQUAMOUS CELL CARCINOMA, LUNG: TUMOR, UTERUS: TUMOR); “active; positive” (Species: RAT, Strain/Sex: F344/FEMALE, Route: GAVAGE, Dose: 0, 16 MG/ML IN 0.2 ML ETHYL ACETATE AND CORN OIL 2/WK FOR 50 WK (STUDY DURATION: LIFESPAN), Tumor Site: Type of Lesion: FORESTOMACH: TUMOR, LUNG: TUMOR, UTERUS: TUMOR, Tumor Site: Type of Lesion: FORESTOMACH: TUMOR, LUNG: TUMOR, UTERUS: TUMOR); “active; positive” (Species: RAT, Strain/Sex: F344/MALE, Route: GAVAGE, Dose: 0, 16 MG/ML (TOTAL DOSE 0; 2 MMOL) IN 2 ML ETHYL ACETATE AND CORN OIL (1:2) 2/WK FOR 50 WK (STUDY DURATION: LIFETIME), Dose: 0, 16 MG/ML (TOTAL DOSE 0; 2 MMOL) IN 2 ML ETHYL ACETATE AND CORN OIL (1:2) 2/WK FOR 50 WK (STUDY DURATION: LIFETIME), Tumor Site: Type of Lesion: FORESTOMACH: SQUAMOUS CELL CARCINOMA, LUNG: TUMOR, BODY CAVITY: MESOTHELIOMA, Tumor Site: Type of Lesion: FORESTOMACH: SQUAMOUS CELL CARCINOMA, LUNG: TUMOR, BODY CAVITY: MESOTHELIOMA); “active; positive” (Species: RAT, Strain/Sex: F344/MALE, Route: GAVAGE, Dose: 0, 16 MG/ML IN 0.2 ML ETHYL ACETATE AND CORN OIL 2/WK FOR 50 WK (STUDY DURATION: LIFESPAN), Tumor Site: Type of Lesion: FORESTOMACH: TUMOR, LUNG: TUMOR: PERITONEUM: MESOTHELIOMA, SKIN: TUMOR, Tumor Site: Type of Lesion: FORESTOMACH: TUMOR, LUNG: TUMOR: PERITONEUM: MESOTHELIOMA, SKIN: TUMOR).

On to `O=CNNc1nc(-c2ccc([N+](=O)[O-])o2)cs1`, for which the carcinogen call (Species: HAMSTER, Route: ORAL, Tumor Site: Type of Lesion: FORESTOMACH, URINARY BLADDER) was “active; positive”; the carcinogen call (Species: MOUSE, Route: ORAL, Tumor Site: Type of Lesion: FORESTOMACH, HEMATOPOIETIC SYSTEM (LEUKEMIA), LUNG, STOMACH, Tumor Site: Type of Lesion: FORESTOMACH, HEMATOPOIETIC SYSTEM (LEUKEMIA), LUNG, STOMACH) was “active; positive”; the carcinogen call (Species: RAT, Route: ORAL, Tumor Site: Type of Lesion: HEMATOPOIETIC SYSTEM (LEUKEMIA), KIDNEY, LIVER, MAMMARY GLAND, Tumor Site: Type of Lesion: HEMATOPOIETIC SYSTEM (LEUKEMIA), KIDNEY, LIVER, MAMMARY GLAND) was “active; positive”.

On to `Nc1c(Cl)cc(Cl)cc1Cl`, for which the carcinogen call (Species: MOUSE, Strain/Sex: CD-1/MALE, Route: ORAL, Dose: 6000, 12000 PPM IN DIET, Tumor Site: Type of Lesion: BLOOD VESSELS) is “active; positive”.

In the case of `O=C([O-])c1cc(N=Nc2ccc(-c3ccc(N/N=c4/c(=O)cc/c(=N\Nc5cc(S(=O)(=O)[O-])ccc5[O-])c4=O)cc3)cc2)ccc1[O-].[Cu+2].[Na+].[Na+]`, the carcinogen call runs as follows: (Species: RAT, Strain/Sex: F344/FEMALE, Route: ORAL, Dose: 0, 190, 375, 750, 1500, 3000 PPM IN DIET FOR 91 D (STUDY DURATION: 93 D), Dose: 0, 190, 375, 750, 1500, 3000 PPM IN DIET FOR 91 D (STUDY DURATION: 93 D), Tumor Site: Type of Lesion: LIVER: HEPATOCELLULAR CARCINOMA OR NEOPLASTIC NODULE, FOCI OF CELLULAR ALTERATION OR BASOPHILIC FOCI) “active; positive”; (Species: RAT, Strain/Sex: F344/MALE, Route: ORAL, Dose: 0, 190, 375, 750, 1500, 3000 PPM IN DIET FOR 91 D (STUDY DURATION: 93 D), Dose: 0, 190, 375, 750, 1500, 3000 PPM IN DIET FOR 91 D (STUDY DURATION: 93 D), Tumor Site: Type of Lesion: LIVER: FOCI OF CELLULAR ALTERATION OR BASOPHILIC FOCI) “active; positive”.

As to `[Ni]#[Sb]`, the carcinogen call (Species: RAT, Strain/Sex: F344/MALE, Route: INTRAMUSCULAR, Tumor Site: Type of Lesion: INJECTION SITE: SARCOMA) was “active; positive”.

As for `O=C(O)COc1ccc(Cl)cc1Cl` (tested in a mixture with another compound), the carcinogen call is, setting by setting: (Species: MOUSE, Strain/Sex: B6C3F1/FEMALE, Route: DERMAL, Dose: 0, 100, 200 MG/KG BW IN ETHANOL 5/WK FOR 104 WK (STUDY DURATION: 104 WK), Dose: 0, 100, 200 MG/KG BW IN ETHANOL 5/WK FOR 104 WK (STUDY DURATION: 104 WK), Tumor Site: Type of Lesion: LIVER: HEPATOCELLULAR ADENOMA, HEPATOCELLULAR CARCINOMA, HEPATOCELLULAR ADENOMA OR CARCINOMA OR HEPATOBLASTOMA) “active; positive”; (Species: MOUSE, Strain/Sex: B6C3F1/MALE, Route: DERMAL, Dose: 0, 100, 200 MG/KG BW IN ETHANOL 5/WK FOR 104 WK (STUDY DURATION: 104 WK), Dose: 0, 100, 200 MG/KG BW IN ETHANOL 5/WK FOR 104 WK (STUDY DURATION: 104 WK), Tumor Site: Type of Lesion: KIDNEY: RENAL TUBULE ADENOMA, RENAL TUBULE ADENOMA OR CARCINOMA, LIVER: HEPATOCELLULAR ADENOMA, HEPATOCELLULAR CARCINOMA) “active; positive”; (Species: RAT, Strain/Sex: F344/FEMALE, Route: DERMAL, Dose: 0, 50, 100 MG/KG BW IN ETHANOL 5/WK FOR 104 WK (STUDY DURATION: 104 WK), Dose: 0, 50, 100 MG/KG BW IN ETHANOL 5/WK FOR 104 WK (STUDY DURATION: 104 WK), Tumor Site: Type of Lesion: KIDNEY: RENAL TUBULE ADENOMA OR CARCINOMA) “equivocal”; (Species: RAT, Strain/Sex: F344/MALE, Route: DERMAL, Dose: 0, 50, 100 MG/KG BW IN ETHANOL 5/WK FOR 104 WK (STUDY DURATION: 104 WK), Dose: 0, 50, 100 MG/KG BW IN ETHANOL 5/WK FOR 104 WK (STUDY DURATION: 104 WK)) “inactive; negative”.

As for `CCCCCN(N=O)C(=O)OCC`, the carcinogen call (Species: RAT, Strain/Sex: DONRYU/FEMALE, Route: ORAL, Dose: 0, 100, 200, 400 PPM IN DRINKING WATER FOR 60 WK, Dose: 0, 100, 200, 400 PPM IN DRINKING WATER FOR 60 WK, Tumor Site: Type of Lesion: ORAL CAVITY: PAPILLOMA, CARCINOMA, ESOPHAGUS: PAPILLOMA, CARCINOMA, FORESTOMACH: PAPILLOMA, CARCINOMA, Tumor Site: Type of Lesion: ORAL CAVITY: PAPILLOMA, CARCINOMA, ESOPHAGUS: PAPILLOMA, CARCINOMA, FORESTOMACH: PAPILLOMA, CARCINOMA) is “active; positive”.

As to `CC(C)CON=O`, the carcinogen call reads like this: (Species: MOUSE, Strain/Sex: B6C3F1/FEMALE, Route: INHALATION, Dose: 0, 158, 315, 630 MG/M3 6 HR/D 5 D/WK FOR 103 WK (STUDY DURATION: 104 WK), Dose: 0, 158, 315, 630 MG/M3 6 HR/D 5 D/WK FOR 103 WK (STUDY DURATION: 104 WK), Tumor Site: Type of Lesion: LUNG: ALVEOLAR/BRONCHIOLAR ADENOMA, ALVEOLAR/BRONCHIOLAR ADENOMA OR CARCINOMA) “active; positive”; (Species: MOUSE, Strain/Sex: B6C3F1/MALE, Route: INHALATION, Dose: 0, 158, 315, 630 MG/M3 6 HR/D 5 D/WK FOR 103 WK (STUDY DURATION: 104 WK), Dose: 0, 158, 315, 630 MG/M3 6 HR/D 5 D/WK FOR 103 WK (STUDY DURATION: 104 WK), Tumor Site: Type of Lesion: LUNG: ALVEOLAR/BRONCHIOLAR ADENOMA, ALVEOLAR/BRONCHIOLAR ADENOMA OR CARCINOMA) “active; positive”; (Species: RAT, Strain/Sex: F344/FEMALE, Route: INHALATION, Dose: 0, 158, 315, 630 MG/M3 6 HR/D 5 D/WK FOR 103 WK (STUDY DURATION: 105 WK), Dose: 0, 158, 315, 630 MG/M3 6 HR/D 5 D/WK FOR 103 WK (STUDY DURATION: 105 WK), Tumor Site: Type of Lesion: LUNG: ALVEOLAR/BRONCHIOLAR ADENOMA, ALVEOLAR/BRONCHIOLAR CARCINOMA OR ADENOMA) “active; positive”; (Species: RAT, Strain/Sex: F344/MALE, Route: INHALATION, Dose: 0, 158, 315, 630 MG/M3 6 HR/D 5 D/WK FOR 103 WK (STUDY DURATION: 105 WK), Dose: 0, 158, 315, 630 MG/M3 6 HR/D 5 D/WK FOR 103 WK (STUDY DURATION: 105 WK), Tumor Site: Type of Lesion: LUNG: ALVEOLAR/BRONCHIOLAR ADENOMA, ALVEOLAR/BRONCHIOLAR CARCINOMA) “active; positive”.
